“Also recorded” adds a separate entry of the source.
Experiments:
IFN-regulated genes = assay: Interferon gene expression in whole blood (qPCR TLDA panel, IFN score), Pristane model; format: in vivo, mouse; conditions: for disease up-regulated IFN-regulated genes reduced by treatment vs. vehicle: 13 weeks of treatment, Student's t-test
Protocol: (§1) FIG. 3A through FIG. 3E show results of testing compound ER-899742 in the Pristane: DBA/1 strain lupus disease model. Figure Legend: Female DBA/1 mice at 9 weeks of age were given an intraperitoneal injection of 0.5 ml pristane or PBS. At 9 weeks post-pristane animals were bled for auto-antibody titers. Once-a-day oral dosing with Vehicle (Veh; 0.5% methyl-cellulose) or 33 mg/kg, 100 mg/kg, or 300 mg/kg of ER-899742 was begun 10 weeks after pristane injection and continued for 13 weeks of treatment. Mice were euthanized after 13 weeks of compound treatment, and anti-dsDNA (FIG. 3A), anti-Sm/nRNP (FIG. 3B), anti-histone (FIG. 3C) and anti-RiboP (FIG. 3D) titers were measured in blood plasma samples by ELISA (statistical significance of treatment versus vehicle determined by ANOVA with Dunnett's post-test). (FIG. 3E) The expression of IFN-regulated genes in whole blood was measured by a qPCR panel after 13 weeks of treatment with 300 mg/kg of ER-899742, and an IFN gene signature score was calculated (see Pharmacology Materials and Methods section for details regarding IFN score calculation).
(§2) FIG. 7A through FIG. 7G show the effect of dosing with ER-899742 in Pristane-induced disease in DBA/1J mice. Figure Legend: Female DBA/1 mice at 9 weeks of age were given an intraperitoneal injection of 0.5 ml pristane or PBS. At 10 weeks post-pristane animals were bled for autoantibody titers. Once-a-day oral dosing with Vehicle (Veh; 0.5% methyl-cellulose) or 33 mg/kg, or 300 mg/kg of ER-899742 was begun 11 weeks after pristane injection and continued for 14 weeks of treatment. Mice were euthanized after 14 weeks of compound treatment, and anti-dsDNA (FIG. 7A), anti-RiboP (FIG. 7B), anti-Sm/nRNP (FIG. 7C), and anti-histone (FIG. 7D) titers were measured in blood plasma samples by ELISA (statistical significance of treatment versus vehicle determined by ANOVA with Dunnett's post-test). The same plasma was used to measure total IgG titers by ELISA at the end of dosing (FIG. 7E). […] Pristane-treated mice in this experiment developed arthritis, with swollen joints in the rear paws. Arthritis scores were assigned according to severity, each paw was scored on a scale of 0-4 based on signs of swelling and inflammation. Scores were summed for the two hind paws assessed on each animal, and graphed in FIG. 7F with statistical assessment as for ELISA titers above.
Assessment of interferon gene expression in whole blood. The expression of IFN-regulated genes in whole blood was measured by qPCR. Briefly, mice were euthanized, blood was collected via the vena cava, and 100 ul was preserved in tubes containing RNAlater (Ambion, Austin Tex.). Total RNA was isolated using the Mouse RiboPure Blood RNA Isolation Kit (Ambion). RNA concentrations were determined using a NanoDrop ND-1000 spectrophotometer (Thermo Scientific, Waltham Mass.). First strand cDNA was synthesized from 100 ng total RNA using SuperScript® VILO™ Master Mix (Life Technologies, Grand Island, N.Y.). After reverse transcription, cDNA was diluted with nuclease-free water and mixed with TaqMan® Fast Advanced Master Mix (Applied Biosystems). The mixture was then applied to a custom TaqMan® Low Density Array (TLDA) manufactured by Applied Biosystems, and qPCR was performed on the ABI 7900HT Fast Real-time PCR System (Applied Biosystems). Raw data was collected using RQ Manager 1.2.1 (Applied Biosystems) and analyzed using GeneData Analyst 2.2 software (GeneData).
The TLDA panel contained as many as 45 target genes chosen from Table 9 below, and 3 housekeeping genes for normalization. The housekeeping gene Hprt1 was chosen for normalization based on coefficient-of-variation. Relative quantities were determined for the target genes and used to calculate a fold change for each diseased mouse relative to the non-diseased control group receiving intraperitoneal PBS injection only. […]

[1] = system: Pristane DBA/1 lupus disease model; assay: Pristane: DBA/1 lupus disease model; format: in vivo, mouse; conditions: for auto-antibody specificities (titers): Pristane model, particularly robust impact on anti-RiboP titers
Protocol: as §1
FIG. 5A through FIG. 5D show results of testing ER-899464 in the Pristane disease model in the same experiment as that shown in FIG. 3A through FIG. 3E. Figure Legend: Mice were euthanized after 13 weeks of compound treatment, and anti-dsDNA (FIG. 5A), anti-Sm/nRNP (FIG. 5B), anti-histone (FIG. 5C), and anti-RiboP (FIG. 5D) titers were measured in blood plasma samples by ELISA (statistical significance of treatment versus vehicle determined by ANOVA with Dunnett's post-test).
as §2
FIG. 8 contains the result of treating for a month with ER-899742 in Pristane-induced disease in DBA/1J mice with advanced disease, after development of high levels of autoantibody. Figure Legend: DBA/1J mice were injected i.p. with pristane at 10 weeks of age. Three months later anti-RiboP and anti-dsDNA titers were taken, and animals randomized into groups with matching mean titers. Groups were sacrificed after one, two or four weeks of oral dosing with ER-899742, and RiboP titers measured in serum.
Mouse Lupus Disease Models.
Mouse lupus disease model strains. Female NZBWF1/J mice were purchased from Jackson Labs (Bar Harbor, Me.), both of which manifest with spontaneous lupus disease. Female DBA/1 mice were purchased from Harlan Laboratories (Indianapolis, Ind.) and at the indicated ages given an intraperitoneal injection of 0.5 ml pristane (2,6,10,14-Tetramethylpentadecane; Sigma, St. Louis, Mo.) to chemically induce lupus disease or of 0.5 ml PBS to generate age-matched, non-diseased control mice.
Assessment of auto-antibody titers by ELISA. […]

[2] = 33 or 300 mg/kg QD oral, 14 weeks of treatment

Row | Structure (SMILES) | disease up-regulated IFN-regulated genes reduced by treatment vs. vehicle (IFN-regulated genes) | auto-antibody specificities (titers) [1] | interferon score, treated vs vehicle-treated (IFN-regulated genes; 13 weeks of treatment with 300 mg/kg) | interferon score, treated vs vehicle-treated (IFN-regulated genes; 14 weeks of treatment experiment (FIG. 7)) | disease-related interferon-modulated genes downregulated (IFN-regulated genes; 14 weeks of treatment experiment (FIG. 7G)) | expression of IFN-modulated genes in whole blood (IFN-regulated genes; Pristane model, summary of key findings) | autoantibody against dsDNA and RiboP [1, 2] | total IgG titers [1, 2] | arthritis scores (hind paws) ([1]; Pristane-treated DBA/1 mice, 33 or 300 mg/kg, 14 weeks, hydrochloride) | reversal of anti-RiboP or DNA titers ([1]; advanced disease, after 28 days of oral dosing)
1 | C[C@@H]1CN(c2ccc(C#N)c3ncccc23)C[C@H](C(=O)NC2CCN(C)CC2)O1 [ER-899464, (2R,6R)-4-(8-cyanoquinolin-5-yl)-6-methyl-N-(1-methylpiperidin-4-yl)morpholine-2-carboxamide] | none of the disease up-regulated genes shown in FIG. 3B were affected | suppressed various auto-antibody specificities | – | – | – | – | – | – | – | –
2 | C[C@@H]1CN(c2ccc(C#N)c3ncccc23)C[C@H](C(=O)N[C@H]2CNC[C@H]2F)O1.Cl [ER-899742, (2R,6R)-4-(8-cyanoquinolin-5-yl)-N-[(3S,4R)-4-fluoropyrrolidin-3-yl]-6-methylmorpholine-2-carboxamide hydrochloride] | six genes were significantly reduced | suppressed various auto-antibody specificities | no significant difference | no significant difference | downregulation of five out of 28 disease-related interferon-modulated genes | Decreased expression of some IFN-modulated genes | Control of autoantibody against dsDNA and RiboP was seen | minimal changes in overall IgG level | Dose-dependent statistically significant suppression was observed; also recorded: Control of arthritis | no statistically significant reversal

— patent USRE47193E1, “Selectively substituted quinoline compounds” (EISAI R&D MANAGEMENT CO., LTD., priority 2013, dated 2019)
